Laboratory results: PMC11530130, “Peripherally restricted PICK1 inhibitor mPD5 ameliorates pain behaviors in murine inflammatory and neuropathic pain models” (JCI Insight, 2024)

Assay: Flow-induced dispersion analysis (FIDA), critical micelle concentration
Assay type: physicochemical
Text: Supplemental Figure S2. FIDA analysis of mPD5. (A) Molecular properties of mPD5.
(B) Taylorgrams for different concentrations of mPD5 using an uncoated capillary.
(C) Taylorgrams for different concentrations of mPD5 using a Poly-L-ornithine capillary.
(D) Taylorgrams for different concentrations of mPD5 using an HS-coated capillary.
(E) Graphical representation of mPD5 absorption using different coating strategies (B-D).
(F) Binding isotherm of mPD5 combining optimal coatings for different concentrations results in a CMC of 12 µM. […]
FIDA was carried out using a fluorescently labelled (AF488-NHS) mPD5 analogue, and fluorescence was recorded at 488 nm using mPD5-AF488 (25% labelling efficiency) as a tracer (100 nM), using the standard protocol recommended by the manufacturer, in short, mPD5 and mPD5-AF488 (25% labelling efficiency) was loaded to the FIDA1 instrument, and peptide sample was injected into the capillary followed by a buffer injection. The diffusion of the peptide could then be observed using 488 nm fluorescence, and the hydrodynamic radius was calculated using the FIDA software 2.0 using a single Gaussian distribution fit, at 75% and curve smoothing. […]
Concentration series of mPD5 ranging from 0.18 mg/mL to 9.37 mg/mL was prepared in buffer containing 50 mM Tris-HCl (pH 7.4) and 125 mM NaCl. Samples were measured at the P12 SAXS Beamline, PetraIII, DESY, Hamburg Germany (2). […]

## CCCCCCCCCCCCCC(=O)N(CCOCCOCCC(=O)N[C@@H](Cc1c[nH]cn1)C(=O)N[C@@H](Cc1c[nH]c2ccccc12)C(=O)N[C@@H](CC(C)C)C(=O)N[C@@H](CCCCN)C(=O)N[C@H](C(=O)O)C(C)C)CCOCCOCCC(=O)N[C@@H](Cc1c[nH]cn1)C(=O)N[C@@H](Cc1c[nH]c2ccccc12)C(=O)N[C@@H](CC(C)C)C(=O)N[C@@H](CCCCN)C(=O)N[C@H](C(=O)O)C(C)C [mPD5, myristoyl-NPEG4-(HWLKV)2]
FIDA binding isotherm, optimal coatings combined
  critical micelle concentration (CMC): 12 µM
FIDA, micellar mPD5
  hydrodynamic radius (RH): ≈ 30 Å
